Measurements reported in PubChem BioAssay AID2060622 (Molecular Pharmacology Branch, DTP, NCI, 2025).
Where “and” joins values, the source holds several entries; their conditions need not be identical. Equal entries are not always repeated. Values belong to the compound of their own block, whether it stands above or below them.

Test system: 242566-281-R-J2-PDC complex spheroid viability
Assay: Anticancer human tumor 242566-281-R-J2-PDC patient-derived pancreatic carcinoma cell line growth inhibition [CLK]
Conditions: for viability, T/C: stronger effect = lower value
From the text: A high-throughput screen of multi-cell type tumor spheroids was designed to identify active combinations of […] and targeted small molecules. Complex spheroids include a stromal component modeled by human endothelial cells (HUVEC) and fibroblasts modeled by human mesenchymal stem cells (MSCs). The concentration ranges selected for each drug and investigational agent were based upon clinically achievable concentrations if the clinical Cmax of the agent was known.
Compounds. The drugs and investigational agents: cirtuvivint (SM08502; NSC835563), CC-671 (NSC850746), vemurafenib (NSC761431), tapotoclax (NSC804041), sotorasib (NSC818433), adagrasib (NSC831453), MRTX-1133 (NSC836407), BAY2416964 (NSC825713), copanlisib (NSC816437), inavolisib (NSC800729), abemaciclib (NSC768073), osimertinib (NSC779217), entinostat (NSC756642), eltanexor (KPT-8602, NSC794443), venetoclax (NSC766270), ceralasertib (NSC777638), bortezomib (NSC756655), olaparib (NSC753686), talazoparib (NSC767125), alisertib (NSC759677), peposertib (NSC802822), gemcitabine (NSC613327), 5-fluorouracil (NSC19893), SN-38 (NSC673596), oxaliplatin (NSC266046), paclitaxel (NSC125973), and doxorubicin (NSC123127), were obtained from the National Cancer Institute (NCI) Developmental Therapeutics Program Chemical Repository. The FDA-approved anticancer drug set is available from the Developmental Therapeutics Program at https://dtp.cancer.gov/organization/dscb/obtaining/available plates.htm. […] The stock solutions were prepared in dimethyl sulfoxide (DMSO, Sigma-Aldrich, St. Louis, MO, cat. D2650), except for the platinum complexes which were prepared in saline (Quality Biological, Gaithersburg, MD, cat. 114-055-101), at 800-fold the tested concentration and stored at -70 degrees C prior to their use. All drugs and investigational agents were tested over a range starting from a high concentration at or near the clinical Cmax and decreasing in half-log increments. If the clinical Cmax for an agent had not been determined, the highest concentration tested was 10 microM.
Cell Culture. All cells were maintained in an incubator at 37 degrees C and 5% CO2 with 95% humidity. The PDC lines were cultured according to standard operating procedures established by the NCI PDMR. Briefly, all PDCs were thawed and cultured in Matrigel-coated flasks prepared with a working solution of 1X Ham's F-12 nutrient mix, without supplementation (Invitrogen, Waltham, MA, cat. 11765054), 100 U/mL penicillin-streptomycin (Invitrogen, cat. 15140122), and 2.5% Matrigel (Corning Inc., Corning, NY, cat. 354248) for the first three passages. The 947758-054-R-J2-PDC line was cultured in 6B/Colon 1A media, which includes advanced DMEM/F-12 (Thermo Fisher Scientific, cat. 12634028), 10 mM HEPES (Thermo Fisher Scientific, cat. 15630080), 1X GlutaMAX supplement (Thermo Fisher Scientific, cat. 35050061), 0.1 mg/mL primocin (InvivoGen, cat. ant-pm-2), 10% defined fetal bovine serum, heat inactivated (HyClone Laboratories Inc., cat. SH30070.03HI), 1.25 mM N-Acetyl-L-cysteine (Sigma-Aldrich, cat. A9165), 10 mM nicotinamide (Sigma-Aldrich, cat. N0636), 1X B-27 supplement (Thermo Fisher Scientific, cat. 17504044), 1X N-2 supplement (Thermo Fisher Scientific, cat. 17502048), and 10 microM Y-27632 dihydrochloride (Tocris Bioscience, cat. 1254). The 876862-298-R-J1-PDC was cultured in 6E media, which includes all 6B/Colon 1A media components plus 50% L-WRN conditioned media (ATCC, cat. CRL-3276), 50 ng/mL recombinant human EGF recombinant protein (hEGF; Thermo Fisher Scientific, cat. PHG0311), 10 ng/mL recombinant human fibroblast growth factor 10 (hGFG-10; PeproTech, cat. 100-26), 1 ng/mL recombinant human fibroblast growth factor 2 (hFGF-2; PeproTech, cat. 100-18B), and 1 µM prostaglandin E2 (PGE2; Tocris, cat. 2296). The 227483-062-R1-J1-PDC line was cultured in Panc media, containing all 6E components except hFGF-2, with the addition of 500 nM SB-431542 (Selleckchem, cat. S1067) and 10 nM gastrin (Tocris, cat. 3006). […]
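Note: spheroids exposed to compounds for 7 days before readout.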
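Throughout, for viability, T/C: 100% = DMSO vehicle control wells.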

IC50 (curve of compound): < 31.6 nM and 83.9 nM
SMILES: Nc1ccn(C2OC(CO)C(O)C2(F)F)c(=O)n1 (stereo not drawn)
viability, T/C (compound 0.0316 µM): 39.5% and 87%
viability, T/C (compound 0.1 µM): 16.9% and 43.3%
viability, T/C (compound 0.316 µM): 11.7% and 21.3%
viability, T/C (compound 1 µM): 9.16% and 13.8%
viability, T/C (compound 3.16 µM): 7.63% and 10.3%
viability, T/C (compound 10 µM): 6.49% and 9.77%

IC50 (curve of compound): > 10000 nM
SMILES: O=C(c1cc(Cc2n[nH]c(=O)c3ccccc23)ccc1F)N1CCN(C(=O)C2CC2)CC1
viability, T/C (compound 0.0316 µM): 107% and 93.5%
viability, T/C (compound 0.1 µM): 97.4% and 85.4%
viability, T/C (compound 0.316 µM): 96.3% and 82.3%
viability, T/C (compound 1 µM): 102% and 94.1%
viability, T/C (compound 3.16 µM): 87.1% and 111%
viability, T/C (compound 10 µM): 72.5% and 75.4%

IC50 (curve of compound): > 10000 nM
SMILES: O=c1[nH]cc(F)c(=O)[nH]1
viability, T/C (compound 0.0316 µM): 103% and 83.7%
viability, T/C (compound 0.1 µM): 104% and 86%
viability, T/C (compound 0.316 µM): 95.3% and 77.2%
viability, T/C (compound 1 µM): 67.9% and 91.2%
viability, T/C (compound 3.16 µM): 56.6% and 65%
viability, T/C (compound 10 µM): 52.4% and 53.3%

SMILES: CCCS(=O)(=O)Nc1ccc(F)c(C(=O)c2c[nH]c3ncc(-c4ccc(Cl)cc4)cc23)c1F + CN1CCN(c2cc(C(=O)Nc3cc4cc(-c5cnn(C)c5)ccc4cn3)ccn2)CC1
IC50 (curve of first compound, second compound 0.0316 µM): 5800 nM
IC50 (curve of first compound, second compound 0.1 µM): 5580 nM
IC50 (curve of first compound, second compound 0.316 µM): < 31.6 nM
IC50 (curve of first compound, second compound 1 µM): < 31.6 nM
IC50 (curve of first compound, second compound 3.16 µM): < 31.6 nM
IC50 (curve of first compound, second compound 10 µM): < 31.6 nM
viability, T/C (second compound 0.0316 µM, first compound 0.0316 µM): 98.8%
viability, T/C (second compound 0.0316 µM, first compound 0.1 µM): 93.1%
viability, T/C (second compound 0.0316 µM, first compound 0.316 µM): 96.3%
viability, T/C (second compound 0.0316 µM, first compound 1 µM): 126%
viability, T/C (second compound 0.0316 µM, first compound 3.16 µM): 97.3%
viability, T/C (second compound 0.0316 µM, first compound 10 µM): 7.56%
viability, T/C (second compound 0.1 µM, first compound 0.0316 µM): 84.8%
viability, T/C (second compound 0.1 µM, first compound 0.1 µM): 102%
viability, T/C (second compound 0.1 µM, first compound 0.316 µM): 87.5%
viability, T/C (second compound 0.1 µM, first compound 1 µM): 109%
viability, T/C (second compound 0.1 µM, first compound 3.16 µM): 89.6%
viability, T/C (second compound 0.1 µM, first compound 10 µM): 8.92%
viability, T/C (second compound 0.316 µM, first compound 0.0316 µM): 42.3%
viability, T/C (second compound 0.316 µM, first compound 0.1 µM): 44.7%
viability, T/C (second compound 0.316 µM, first compound 0.316 µM): 45.2%
viability, T/C (second compound 0.316 µM, first compound 1 µM): 40.5%
viability, T/C (second compound 0.316 µM, first compound 3.16 µM): 33.1%
viability, T/C (second compound 0.316 µM, first compound 10 µM): 8.52%
viability, T/C (second compound 1 µM, first compound 0.0316 µM): 4.91%
viability, T/C (second compound 1 µM, first compound 0.1 µM): 5.46%
viability, T/C (second compound 1 µM, first compound 0.316 µM): 4.96%
viability, T/C (second compound 1 µM, first compound 1 µM): 5.32%
viability, T/C (second compound 1 µM, first compound 3.16 µM): 5.68%
viability, T/C (second compound 1 µM, first compound 10 µM): 5.62%
viability, T/C (second compound 3.16 µM, first compound 0.0316 µM): 7.02%
viability, T/C (second compound 3.16 µM, first compound 0.1 µM): 8.45%
viability, T/C (second compound 3.16 µM, first compound 0.316 µM): 6.23%
viability, T/C (second compound 3.16 µM, first compound 1 µM): 8.2%
viability, T/C (second compound 3.16 µM, first compound 3.16 µM): 10.1%
viability, T/C (second compound 3.16 µM, first compound 10 µM): 9.62%
viability, T/C (second compound 10 µM, first compound 0.0316 µM): 2.81%
viability, T/C (second compound 10 µM, first compound 0.1 µM): 2.91%
viability, T/C (second compound 10 µM, first compound 0.316 µM): 2.02%
viability, T/C (second compound 10 µM, first compound 1 µM): 2.43%
viability, T/C (second compound 10 µM, first compound 3.16 µM): 2.11%
viability, T/C (second compound 10 µM, first compound 10 µM): 1.29%
